According to patent publication US12059422B2 (MEI Pharma, Inc., priority 2011, dated 2024):

How the values were obtained:
PI3Kγ = target: T1, PI3Kγ (Mus musculus, UniProt Q9JHG7); assay: ELISA assay for PI3Kγ: in-cell ELISA, phosphorylation of AKT (Ser473) in RAW 264.7 cells; assay type: cell-based; conditions: cellular, pAKT (Ser473), C5a stimulation, read-out: IC50 p110γ
T1 construct: endogenous in cells; host or cells: RAW 264.7 (ATCC #TIB-71)
Method: PI3K gamma (PI3Kγ) activity was determined by measuring the phosphorylation of AKT (Ser473) using an in-cell ELISA assay. RAW 264.7 (mouse macrophage) cells were obtained from ATCC (ATCC #TIB-71). Growth medium was DMEM (CellGro #CV-10-013-CV) supplemented with 10% fetal bovine serum, 100 IU/mL penicillin, 100 μg/mL streptomycin, and 1×MEM non-essential amino acids. Phosphate buffered saline (PBS) contained 2.7 M NaCl, 54 mM KCl, 86 mM […] (dibasic, anhydrous), and 28 mM […] (monobasic, anhydrous) at pH 7.2. Stimulation mixture (10×) was 500 ng/mL recombinant human complement component C5a (R&D systems #2037-C5-025) diluted in serum-free DMEM medium (CellGro #CV-10-013-CV). Compounds for testing were dissolved and serially diluted in 100% DMSO (total of 10 concentrations), then diluted in serum-free DMEM to 2× final assay concentration. Fixative solution (2×) was 8% formaldehyde (Amresco #M134) diluted in PBS. Permeabilization solution was PBS supplemented with 0.10% Triton X-100. Blocking buffer was obtained from LiCor (LiCor #927-40000). Wash buffer was PBS supplemented with 0.1% Tween-20. Primary antibody solution was rabbit anti-pAKT^S473 monoclonal antibody (Cell Signaling #4060) and mouse anti-total S6 (Santa Cruz #74459) diluted 1:500 and 1:2000, respectively, in the blocking buffer. Secondary antibody solution was IRDye 800CW-conjugated goat anti-rabbit IgG (LiCor #926-32211) and IRDye 680LT-conjugated goat anti-mouse IgG (LiCor #926-68020) diluted 1:1000 and 1:2000, respectively, in the blocking buffer.
(§1) RAW 264.7 cells were subcultured in growth medium and seeded into flat, clear bottom, 96-well plates (Corning #3904) at 70000 cells/well, then incubated overnight in a 37° C., 5% CO2 incubator. Growth medium in plates was replaced with 100 μL/well serum-free DMEM and incubated overnight in a 37° C., 5% CO2 incubator. Fresh serum-free DMEM (50 μL/well) was added to plates. Compound treatment was performed by adding 50 μL/well of 2× compound mixture to plates and incubating for 2 hrs at 37° C., 5% CO2, after which 11 μL/well of 10× stimulation mixture was added and plates were incubated for 3 min at 37° C., 5% CO2. Fixation was performed by adding 110 μL/well of 2× fixative solution to plates and incubating for 20 min at room temperature. Permeabilization was performed by replacing fixation solution with 150 μL/well permeabilization solution and incubating for 10 min at room temperature. Permeabilization was repeated (for a total of 2 times). Permeabilization solution was replaced with 100 μL/well blocking buffer and plates were incubated for 1 hr at room temperature, after which 100 μL/well of primary antibody solution was added and plates were incubated overnight at 4° C. Plates were washed with wash buffer, after which 100 μL/well of secondary antibody solution was added to the plates and incubated in the dark for 1 hr at room temperature. Plates were washed with wash buffer, followed by awash with PBS. After completely removing PBS, plates were scanned on the Licor Odyssey Imager. Images were quantified using Licor Odyssey application software. IC50 values were determined by curve fitting using a Collaborative Drug Discovery database (www.collaborativedrug.com).

PI3Kβ = target: T2, PI3Kβ (Homo sapiens, UniProt P42338); assay: ELISA assay for PI3Kβ: in-cell ELISA, phosphorylation of AKT (Ser473) in PC-3 cells; assay type: cell-based; conditions: for IC50: cellular, pAKT (Ser473), PC-3 cells, LPA stimulation, read-out: IC50 p110β; for α/β ratio: ratio of cellular IC50 values, Table 2
T2 construct: endogenous in cells; host or cells: PC-3 (ATCC #CRL-1435)
Method: Cellular PI3Kβ activity was determined by measuring the phosphorylation of AKT (Ser473) using an in-cell ELISA assay. PC-3 (prostate carcinoma) cells were obtained from ATCC (ATCC #CRL-1435). Growth medium was DMEM (CellGro #CV-10-013-CV) supplemented with 10% fetal bovine serum, 100 IU/mL penicillin, 100 μg/mL streptomycin, and 1×MEM non-essential amino acids. Phosphate buffered saline (PBS) contained 2.7 M NaCl, 54 mM KCl, 86 mM […] (dibasic, anhydrous), 28 mM […] (monobasic, anhydrous), pH 7.2, 10× stimulation mixture contained 50 μM LPA (Cayman #62215) diluted in serum-free DMEM medium (CellGro #CV-10-013-CV). Compounds for testing were dissolved and serially diluted in 100% DMSO (total of 10 concentrations), then diluted in serum-free DMEM to 2× final assay concentration. 2× fixative solution contained 8% formaldehyde (Amresco #M134) diluted in PBS. Permeabilization solution contained PBS supplemented with 0.1% Triton X-100. Blocking buffer was obtained from LiCor (LiCor #927-40000). Wash buffer contained PBS supplemented with 0.1% Tween-20. Primary antibody solution was rabbit anti-pAKT^S473 monoclonal antibody (Cell Signaling #4060) and mouse anti-total S6 (Santa Cruz #74459) diluted 1:500 and 1:2000, respectively, in blocking buffer. Secondary antibody solution was IRDye 800CW-conjugated goat anti-rabbit IgG (LiCor #926-32211) and IRDye 680LT-conjugated goat anti-mouse IgG (LiCor #926-68020) diluted 1:2000 and 1:1000, respectively, in blocking buffer.
as §1, with “PC-3 cells” for “RAW 264.7 cells”, “at 16000” for “at 70000”, “incubator. 50 μL/well of fresh” for “incubator. Fresh”, “DMEM” for “DMEM (50 μL/well)”, “for 10” for “for 3”, “Images” for “Images were”

T1 sequence (Q9JHG7 whole entry): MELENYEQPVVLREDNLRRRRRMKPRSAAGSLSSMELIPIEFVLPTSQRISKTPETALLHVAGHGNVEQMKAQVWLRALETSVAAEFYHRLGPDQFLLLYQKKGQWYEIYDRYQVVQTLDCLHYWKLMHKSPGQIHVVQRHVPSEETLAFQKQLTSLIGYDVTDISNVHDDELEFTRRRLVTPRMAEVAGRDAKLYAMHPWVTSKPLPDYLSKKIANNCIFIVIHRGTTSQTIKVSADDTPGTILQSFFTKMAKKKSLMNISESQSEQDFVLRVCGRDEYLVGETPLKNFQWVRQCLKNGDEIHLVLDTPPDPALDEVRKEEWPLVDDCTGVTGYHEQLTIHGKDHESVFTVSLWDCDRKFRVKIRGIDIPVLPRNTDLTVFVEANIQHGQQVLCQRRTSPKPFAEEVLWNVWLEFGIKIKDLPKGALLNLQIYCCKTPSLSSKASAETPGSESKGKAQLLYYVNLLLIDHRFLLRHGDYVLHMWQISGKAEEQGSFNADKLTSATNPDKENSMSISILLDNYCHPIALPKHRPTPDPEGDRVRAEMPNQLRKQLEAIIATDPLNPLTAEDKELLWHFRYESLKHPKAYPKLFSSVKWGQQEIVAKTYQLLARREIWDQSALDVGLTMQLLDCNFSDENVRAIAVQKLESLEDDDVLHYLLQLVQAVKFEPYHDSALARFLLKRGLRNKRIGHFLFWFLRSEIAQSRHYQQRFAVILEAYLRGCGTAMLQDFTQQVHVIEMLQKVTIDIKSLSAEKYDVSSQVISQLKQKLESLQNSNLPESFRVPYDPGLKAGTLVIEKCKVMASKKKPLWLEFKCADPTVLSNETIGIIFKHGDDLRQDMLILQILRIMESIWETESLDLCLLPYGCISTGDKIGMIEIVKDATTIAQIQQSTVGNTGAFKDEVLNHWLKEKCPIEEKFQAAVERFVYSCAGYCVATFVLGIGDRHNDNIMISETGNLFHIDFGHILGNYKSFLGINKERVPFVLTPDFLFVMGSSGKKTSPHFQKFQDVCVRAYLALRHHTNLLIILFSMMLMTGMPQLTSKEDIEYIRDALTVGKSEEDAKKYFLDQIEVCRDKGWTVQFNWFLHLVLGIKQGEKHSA
T2 sequence (P42338 whole entry): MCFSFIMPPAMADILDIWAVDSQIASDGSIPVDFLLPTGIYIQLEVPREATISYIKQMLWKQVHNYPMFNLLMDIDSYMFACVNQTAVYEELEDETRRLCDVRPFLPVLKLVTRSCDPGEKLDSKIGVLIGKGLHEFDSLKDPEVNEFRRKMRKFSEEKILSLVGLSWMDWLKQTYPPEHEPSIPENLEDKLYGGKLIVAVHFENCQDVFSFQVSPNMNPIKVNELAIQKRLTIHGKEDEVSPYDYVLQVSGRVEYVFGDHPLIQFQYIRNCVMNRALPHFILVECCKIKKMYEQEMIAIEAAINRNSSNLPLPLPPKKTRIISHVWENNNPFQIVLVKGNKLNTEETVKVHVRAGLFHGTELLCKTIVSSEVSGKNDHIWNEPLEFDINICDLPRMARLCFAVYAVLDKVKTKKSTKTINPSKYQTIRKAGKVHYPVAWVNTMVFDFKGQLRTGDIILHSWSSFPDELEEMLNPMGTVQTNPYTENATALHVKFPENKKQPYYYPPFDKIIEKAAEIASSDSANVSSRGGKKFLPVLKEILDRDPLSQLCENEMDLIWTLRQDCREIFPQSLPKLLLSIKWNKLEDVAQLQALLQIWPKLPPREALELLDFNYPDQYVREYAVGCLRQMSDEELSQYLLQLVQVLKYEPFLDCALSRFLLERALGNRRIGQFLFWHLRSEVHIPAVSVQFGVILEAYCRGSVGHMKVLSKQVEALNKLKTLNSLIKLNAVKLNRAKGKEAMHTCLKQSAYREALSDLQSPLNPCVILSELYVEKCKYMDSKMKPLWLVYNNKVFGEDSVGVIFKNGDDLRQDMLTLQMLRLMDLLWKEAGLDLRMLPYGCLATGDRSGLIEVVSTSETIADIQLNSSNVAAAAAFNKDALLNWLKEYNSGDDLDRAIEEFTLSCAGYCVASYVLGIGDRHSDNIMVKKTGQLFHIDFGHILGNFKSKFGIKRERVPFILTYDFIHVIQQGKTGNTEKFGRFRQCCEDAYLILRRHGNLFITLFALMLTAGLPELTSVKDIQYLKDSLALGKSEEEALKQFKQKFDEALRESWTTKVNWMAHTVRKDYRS
T2 sequence (P27986 whole entry partner): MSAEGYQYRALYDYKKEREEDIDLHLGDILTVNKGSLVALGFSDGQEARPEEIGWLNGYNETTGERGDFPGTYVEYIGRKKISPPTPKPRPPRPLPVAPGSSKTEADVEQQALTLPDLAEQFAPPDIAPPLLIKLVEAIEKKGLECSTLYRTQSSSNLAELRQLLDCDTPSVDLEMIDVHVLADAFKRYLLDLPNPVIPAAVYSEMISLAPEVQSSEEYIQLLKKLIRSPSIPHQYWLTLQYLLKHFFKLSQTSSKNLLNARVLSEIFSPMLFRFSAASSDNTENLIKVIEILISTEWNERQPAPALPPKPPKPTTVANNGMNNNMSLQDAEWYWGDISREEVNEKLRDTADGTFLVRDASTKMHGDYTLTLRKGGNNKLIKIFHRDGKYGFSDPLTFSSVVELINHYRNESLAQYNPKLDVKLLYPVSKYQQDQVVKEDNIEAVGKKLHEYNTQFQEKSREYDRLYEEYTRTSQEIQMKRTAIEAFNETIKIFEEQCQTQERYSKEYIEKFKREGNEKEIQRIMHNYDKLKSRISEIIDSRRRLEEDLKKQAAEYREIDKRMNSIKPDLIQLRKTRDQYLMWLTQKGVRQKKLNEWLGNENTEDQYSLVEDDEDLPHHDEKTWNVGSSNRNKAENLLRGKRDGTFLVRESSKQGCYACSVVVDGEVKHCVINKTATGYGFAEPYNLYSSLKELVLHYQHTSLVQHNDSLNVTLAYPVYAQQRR

Compound	IC50 (PI3Kγ) [nM]	IC50 (PI3Kβ) [nM]	α/β ratio (PI3Kβ)
COc1cccc(CC(C)(C)Nc2nc(N3CCOCC3)nc(-n3c(C(F)F)nc4ccccc43)n2)c1 [Compound A21, 4-(2-(difluoromethyl)-1H-benzo[d]imidazol-1-yl)-N-(1-(3-methoxyphenyl)-2-methylpropan-2-yl)-6-morpholino-1,3,5-triazin-2-amine]	200 to 500	100 to 200	A’
CC(C)(Cc1ccc(F)cc1)Nc1nc(N2CCOCC2)nc(-n2c(C(F)F)nc3ccccc32)n1 [Compound A22, 4-(2-(difluoromethyl)-1H-benzo[d]imidazol-1-yl)-N-(1-(4-fluorophenyl)-2-methylpropan-2-yl)-6-morpholino-1,3,5-triazin-2-amine]	200 to 500	≤ 100	C’
CC(C)(Cc1ccccc1-c1ccncc1)Nc1nc(N2CCOCC2)nc(-n2c(C(F)F)nc3ccccc32)n1 [Compound A33, 4-(2-(difluoromethyl)-1H-benzo[d]imidazol-1-yl)-N-(2-methyl-1-(2-(pyridin-4-yl)phenyl)propan-2-yl)-6-morpholino-1,3,5-triazin-2-amine]	–	≤ 100	–
CN1CCC(c2ccccc2CC(C)(C)Nc2nc(N3CCOCC3)nc(-n3c(C(F)F)nc4ccccc43)n2)CC1 [Compound A35, 4-(2-(difluoromethyl)-1H-benzo[d]imidazol-1-yl)-N-(2-methyl-1-(2-(1-methylpiperidin-4-yl)phenyl)propan-2-yl)-6-morpholino-1,3,5-triazin-2-amine]	200 to 500	≤ 100	A’
CC(C)(Cc1cccc(F)c1)Nc1nc(N2CCOCC2)nc(-n2c(C(F)F)nc3ccccc32)n1 [Compound A39, 4-(2-(difluoromethyl)-1H-benzo[d]imidazol-1-yl)-N-(1-(3-fluorophenyl)-2-methylpropan-2-yl)-6-morpholino-1,3,5-triazin-2-amine]	100 to 200	≤ 100	A’
CC(C)(Cc1ccccc1-c1cccnc1)Nc1nc(N2CCOCC2)nc(-n2c(C(F)F)nc3ccccc32)n1 [Compound A40, 4-(2-(difluoromethyl)-1H-benzo[d]imidazol-1-yl)-N-(2-methyl-1-(2-(pyridin-3-yl)phenyl)propan-2-yl)-6-morpholino-1,3,5-triazin-2-amine]	200 to 500	≤ 100	A’
COc1cc(-c2ccccc2CC(C)(C)Nc2nc(N3CCOCC3)nc(-n3c(C(F)F)nc4ccccc43)n2)ccn1 [Compound A41, 4-(2-(difluoromethyl)-1H-benzo[d]imidazol-1-yl)-N-(1-(2-(2-methoxypyridin-4-yl)phenyl)-2-methylpropan-2-yl)-6-morpholino-1,3,5-triazin-2-amine]	> 500	100 to 200	B’
Cc1cc(-c2ccccc2CC(C)(C)Nc2nc(N3CCOCC3)nc(-n3c(C(F)F)nc4ccccc43)n2)ccn1 [Compound A43, 4-(2-(difluoromethyl)-1H-benzo[d]imidazol-1-yl)-N-(2-methyl-1-(2-(2-methylpyridin-4-yl)phenyl)propan-2-yl)-6-morpholino-1,3,5-triazin-2-amine]	200 to 500	≤ 100	C’

Other lines, results leading:

IC50 (PI3Kγ) [nM]	IC50 (PI3Kβ) [nM]	α/β ratio (PI3Kβ)	Compound
200 to 500	≤ 100	B’	CC(C)(Cc1ccccc1)Nc1nc(N2CCOCC2)nc(-n2c(C(F)F)nc3ccccc32)n1 [Compound A14, 4-(2-(difluoromethyl)-1H-benzo[d]imidazol-1-yl)-N-(2-methyl-1-phenylpropan-2-yl)-6-morpholino-1,3,5-triazin-2-amine]
200 to 500	≤ 100	C’	CC(C)(Cc1ccccc1F)Nc1nc(N2CCOCC2)nc(-n2c(C(F)F)nc3ccccc32)n1 [Compound A15, 4-(2-(difluoromethyl)-1H-benzo[d]imidazol-1-yl)-N-(1-(2-fluorophenyl)-2-methylpropan-2-yl)-6-morpholino-1,3,5-triazin-2-amine]
> 500	≤ 100	B’	CC(C)(Cc1ccccc1Cl)Nc1nc(N2CCOCC2)nc(-n2c(C(F)F)nc3ccccc32)n1 [Compound A16, 4-(2-(difluoromethyl)-1H-benzo[d]imidazol-1-yl)-N-(1-(2-chlorophenyl)-2-methylpropan-2-yl)-6-morpholino-1,3,5-triazin-2-amine]
200 to 500	≤ 100	C’	Cc1ccccc1CC(C)(C)Nc1nc(N2CCOCC2)nc(-n2c(C(F)F)nc3ccccc32)n1 [Compound A18, 4-(2-(difluoromethyl)-1H-benzo[d]imidazol-1-yl)-N-(2-methyl-1-(o-tolyl)propan-2-yl)-6-morpholino-1,3,5-triazin-2-amine]
–	≤ 100	–	COc1ccccc1CC(C)(C)Nc1nc(N2CCOCC2)nc(-n2c(C(F)F)nc3ccccc32)n1 [Compound A19, 4-(2-(difluoromethyl)-1H-benzo[d]imidazol-1-yl)-N-(1-(2-methoxyphenyl)-2-methylpropan-2-yl)-6-morpholino-1,3,5-triazin-2-amine]
–	≤ 100	–	CC(C)(Cc1cccc2ccccc12)Nc1nc(N2CCOCC2)nc(-n2c(C(F)F)nc3ccccc32)n1 [Compound A27, 4-(2-(difluoromethyl)-1H-benzo[d]imidazol-1-yl)-N-(2-methyl-1-(naphthalen-1-yl)propan-2-yl)-6-morpholino-1,3,5-triazin-2-amine]
